From the NIST ThermoML archive (doi:10.1016/j.fluid.2008.10.003)

Test: isobaric coefficient of expansion; xn = mol fraction of the nth substance listed
Conditions: calorimetric method

CCCCCCO [hexan-1-ol] + CCCCCC
isobaric coefficient of expansion
Conditions	5000 kPa	10000 kPa	15000 kPa	20000 kPa	25000 kPa	30000 kPa	35000 kPa	40000 kPa	45000 kPa	50000 kPa
278.15 K, x1 = 0.0321	0.00122 1/K	0.00117 1/K	0.00114 1/K	0.0011 1/K	0.00107 1/K	0.00104 1/K	0.00101 1/K	0.000982 1/K	0.000957 1/K	0.000935 1/K
278.15 K, x1 = 0.041	0.00122 1/K	0.00118 1/K	0.00114 1/K	0.0011 1/K	0.00107 1/K	0.00104 1/K	0.00101 1/K	0.000977 1/K	0.000958 1/K	0.000937 1/K
278.15 K, x1 = 0.0946	0.00119 1/K	0.00115 1/K	0.00112 1/K	0.00108 1/K	0.00105 1/K	0.00102 1/K	0.000997 1/K	0.000967 1/K	0.000942 1/K	0.000925 1/K
278.15 K, x1 = 0.1679	0.00116 1/K	0.00112 1/K	0.00108 1/K	0.00105 1/K	0.00102 1/K	0.000996 1/K	0.000974 1/K	0.000947 1/K	0.000923 1/K	0.000907 1/K
278.15 K, x1 = 0.2153	0.00114 1/K	0.0011 1/K	0.00107 1/K	0.00103 1/K	0.00101 1/K	0.000979 1/K	0.000958 1/K	0.000928 1/K	0.000909 1/K	0.000892 1/K
278.15 K, x1 = 0.3016	0.0011 1/K	0.00106 1/K	0.00103 1/K	0.000999 1/K	0.000978 1/K	0.000953 1/K	0.000932 1/K	0.000911 1/K	0.000887 1/K	0.000868 1/K
278.15 K, x1 = 0.4075	0.00105 1/K	0.00102 1/K	0.000995 1/K	0.000967 1/K	0.000946 1/K	0.000921 1/K	0.000903 1/K	0.000877 1/K	0.000859 1/K	0.000844 1/K
278.15 K, x1 = 0.503	0.00101 1/K	0.000989 1/K	0.000961 1/K	0.00094 1/K	0.000917 1/K	0.000893 1/K	0.000876 1/K	0.000851 1/K	0.000835 1/K	0.00082 1/K
278.15 K, x1 = 0.594	0.000978 1/K	0.000951 1/K	0.000932 1/K	0.000902 1/K	0.000887 1/K	0.000864 1/K	0.00085 1/K	0.000831 1/K	0.000804 1/K	0.0008 1/K
278.15 K, x1 = 0.6827	0.000937 1/K	0.000916 1/K	0.000897 1/K	0.000874 1/K	0.000857 1/K	0.00084 1/K	0.000824 1/K	0.000804 1/K	0.000791 1/K	0.000775 1/K
278.15 K, x1 = 0.8013	0.000892 1/K	0.000865 1/K	0.000857 1/K	0.000834 1/K	0.000819 1/K	0.000806 1/K	0.000784 1/K	0.000769 1/K	0.000756 1/K	0.000745 1/K
278.15 K, x1 = 0.8934	0.00085 1/K	0.000837 1/K	0.000817 1/K	0.000803 1/K	0.000789 1/K	0.000775 1/K	0.000756 1/K	0.000751 1/K	0.000733 1/K	0.000723 1/K
278.15 K, x1 = 1	0.000821 1/K	0.0008 1/K	0.000788 1/K	0.000778 1/K	0.00076 1/K	0.000748 1/K	0.000733 1/K	0.000723 1/K	0.000716 1/K	0.000708 1/K
298.15 K, x1 = 0.0321	0.0013 1/K	0.00124 1/K	0.0012 1/K	0.00115 1/K	0.00111 1/K	0.00107 1/K	0.00104 1/K	0.00101 1/K	0.00098 1/K	0.000951 1/K
298.15 K, x1 = 0.041	0.0013 1/K	0.00124 1/K	0.0012 1/K	0.00115 1/K	0.00111 1/K	0.00108 1/K	0.00104 1/K	0.00101 1/K	0.000985 1/K	0.000959 1/K
298.15 K, x1 = 0.0946	0.00127 1/K	0.00122 1/K	0.00118 1/K	0.00113 1/K	0.0011 1/K	0.00106 1/K	0.00103 1/K	0.000999 1/K	0.000969 1/K	0.000946 1/K
298.15 K, x1 = 0.1679	0.00124 1/K	0.00119 1/K	0.00115 1/K	0.0011 1/K	0.00107 1/K	0.00104 1/K	0.00101 1/K	0.000977 1/K	0.00095 1/K	0.000926 1/K
298.15 K, x1 = 0.2153	0.00121 1/K	0.00116 1/K	0.00112 1/K	0.00108 1/K	0.00105 1/K	0.00102 1/K	0.000988 1/K	0.000962 1/K	0.000936 1/K	0.000913 1/K
298.15 K, x1 = 0.3016	0.00117 1/K	0.00112 1/K	0.00109 1/K	0.00105 1/K	0.00101 1/K	0.000984 1/K	0.000958 1/K	0.000935 1/K	0.000908 1/K	0.000883 1/K
298.15 K, x1 = 0.4075	0.00112 1/K	0.00108 1/K	0.00105 1/K	0.00102 1/K	0.000986 1/K	0.000957 1/K	0.00093 1/K	0.000912 1/K	0.000888 1/K	0.000868 1/K
298.15 K, x1 = 0.503	0.00108 1/K	0.00104 1/K	0.00101 1/K	0.000982 1/K	0.000952 1/K	0.000928 1/K	0.000904 1/K	0.000879 1/K	0.000864 1/K	0.000844 1/K
298.15 K, x1 = 0.594	0.00103 1/K	0.001 1/K	0.000975 1/K	0.000944 1/K	0.00092 1/K	0.000897 1/K	0.000873 1/K	0.000856 1/K	0.000836 1/K	0.000819 1/K
298.15 K, x1 = 0.6827	0.000993 1/K	0.000965 1/K	0.000939 1/K	0.000913 1/K	0.00089 1/K	0.000868 1/K	0.000846 1/K	0.000827 1/K	0.000812 1/K	0.000794 1/K
298.15 K, x1 = 0.8013	0.000938 1/K	0.000913 1/K	0.00089 1/K	0.000868 1/K	0.000848 1/K	0.00083 1/K	0.000809 1/K	0.000792 1/K	0.000778 1/K	0.000763 1/K
298.15 K, x1 = 0.8934	0.000896 1/K	0.000874 1/K	0.000855 1/K	0.000835 1/K	0.000816 1/K	0.000797 1/K	0.000781 1/K	0.000763 1/K	0.000751 1/K	0.000739 1/K
298.15 K, x1 = 1	0.00085 1/K	0.000832 1/K	0.000812 1/K	0.000796 1/K	0.00078 1/K	0.000764 1/K	0.000749 1/K	0.000734 1/K	0.000724 1/K	0.000712 1/K
